The values that follow come from US9566290B2, “Boron-containing small molecules” (Anacor Pharmaceuticals, Inc., priority 2005, dated 2017).

The nature of series [1]: Water solubility (table of physicochemical properties).
In series [2] the test system is S. cerevisiae C10 resistant mutants (CDC60 editing domain mutations). Briefly: MIC (NCCLS M27), spontaneous and EMS induced C10 resistant mutants. The note with it: for MIC: Saccharomyces cerevisiae, Table 2. In kind it is cell-based, Saccharomyces cerevisiae. As to the method: (§1) The haploid Saccharomyces cerevisiae strain ATCC 201388 was used in the selection of C10 resistant mutants. Spontaneous and EMS-induced resistant mutants were isolated from YPD agar plates containing 4×, 8×, 16×MIC of C10. All minimal inhibitory concentrations (MIC) were determined using NCCLS protocol M27 with the exception of using YPD or synthetic defined media. All yeast and molecular genetic manipulations were essentially performed as described by Guthrie C., et al., Methods in Enzymology, 350: Part B, (2002).
Resistant mutants appeared after 2 d incubation at 30° C. Frequency of resistance was determined by dividing the number of resistant mutants by the total number of cells plated as determined by plating dilutions of the overnight culture on YPD plates.
A 2.5 mL of the overnight culture, which was grown in YPD media, was centrifuged at 700×g for 5 minutes. The cell pellet was resuspended in 10 mL 50 mM potassium phosphate buffer, pH 7.0. The cell suspension was centrifuged again and the cell pellet was resuspended in phosphate buffer to obtain a cell density of 5×10^7 cells/mL as determined by counting the cells using a Petroff Hausser Counting Chamber (Horsham, Pa. USA). The cell suspension was shaken with 300 μL of EMS (Alfa Aesar, Ward Hill, Mass., USA) for 30 min. at 30° C. The mutagenesis was stopped by adding 10% (w/v) sodium thiosulfate (Sigma-Aldrich, St. Louis, Mo., USA), and the cells were pelleted by centrifugation at 700×g for 5 min. and resuspended in 1 mL sterile H2O. This was repeated once more before the cells were plated on YPD agar plates containing 1.6 μg/mL of C10.
(§2) The minimal inhibitory concentration (MIC) was essentially performed following the NCCLS guidelines outlined in the M27 protocol with the exception of using YPD or synthetic defined media (SDM).

A short description of series [3]: Nail penetration, 14-day dosing of radiolabeled compound (Hui protocol). In kind it is in vitro ADME. Conditions: washing, nail samples and supporting bed cotton ball samples; 14-day treatment. As to the method: Two nail penetration studies were performed based on the protocol in Hui et al., Journal of Pharmaceutical Sciences, 91(1): 189-195 (2002) (“Hui protocol”). The purpose of this study was to determine and compare the penetration and distribution of C10 in vehicle into the human nail plate in vitro relative to 8% ciclopirox w/w in commercial lacquer (Penlac®).
The study was composed of two groups. The compositions (weight %) of the dosage formulations are as follows: […]
Healthy human finger nail plates were collected from adult human cadavers and stored in a closed container at 0-4° C. Before the experiment, the nail plates were gently washed with normal saline to remove any contamination, then re-hydrated by placing them for three hours on a cloth wetted with normal saline. The nail samples were randomly selected into four groups.
Radioactivity of each group is approximately 0.19±0.01 and 0.22±0.03 μCi/10 μL solutions respectively, for ^14C—C10 (group A), and ^14C-ciclopirox (group C).
Surface washing was started in morning 10 min prior to next dosing, the surface of the nail was washed with cotton tips in a cycle, as follows:
A Teflon one-chamber diffusion cell (PermeGear, Inc., Hellertown, Pa.) was used to hold each nail. To approximate physiological conditions, a small cotton ball wetted with 0.1 mL normal saline was placed in the chamber to serve as a nail bed and provide moisture for the nail plate. Every 3 days, 0.1 mL normal saline was injected through the inlet into the chamber to keep the cotton ball wet. The nail plate was placed on a ledge inside the receptor (1.0 cm in diameter and 0.5 cm high). The ventral (inner) surface of the nail was placed face down and rested on the wet cotton ball. The cells were placed on a platform in a large glass holding tank filled with saturated sodium phosphate solution to keep the cells at a constant humidity of 40%.
After completion of the incubation phase, the nail plate was transferred from the diffusion cell to a clean copper nail holder for sampling process. The nail plate was inverted so that the ventral (nail bed) surface now faced up and the dorsal (outer) dosed surfaced faced down. The copper nail holder has an opening as it sits on top of the stage. When the sampling process initiated, the coarse adjustment was adjusted to move the position of the stage until the nail plate was just touching the tip of the cutter. Then the drill was turned on and the fine adjustment was turned to push the stage closer to the drill, removing a nail core sample. After the above process, approximate 0.40-0.50 mm in depth and 7.9 mm in diameter nail pulverized samples were harvested from the center of the ventral (nail bed) surface of the nail.
The powdered nail samples were collected into a glass scintillation vial and weighted. Aliquots of 5.0 mL Packard soluene-350 (Packard Instrument Company, Meriden, Conn.) was added to the scintillation vial to dissolve the powder. The upper part, the intermediate and dorsal layers of the center of the nail, including the area of application of the dose was cut in the same diameter as the sampled area and was then placed into a glass scintillation vial with 5.0 mL packard soluene-350. The rest of the nail was also placed in a glass scintillation vial with 5.0 mL packard soluene-350.
All radioactivity measurements were conducted with a Model 1500 Liquid Scintillation Counter (Packard Instrument Company, Downer Grove, Ill.). The counter was audited for accuracy using sealed samples of quenched and unquenched standards as detailed by the instrument manual. The ^14C counting efficiency is equal to or greater than 95%. All nail samples pre-treated with packard soluene-350 were incubated at 40° C. for 48 hours followed by the addition of 10 mL scintillation cocktail (HIONIC-FLUOR, Packard Instrument Company, Meriden, Conn.). […]

The format of series [4] is in vitro ADME, human. As to the method: C10, 5-fluoro-1,3-dihydro-1-phenyl-2,1-benzoxaborole, C1, and 5-fluoro-1,3-dihydro-1-(3-hydroxymethylphenyl)-2,1-benzoxaborole, formulated at 10% w/v in ethanol, were tested. A single aliquot (10 μl) of each formulation was dosed to the top of human nail plates using the nail penetration procedure described below, and allowed to stand for 3-days. The dosed area was washed, and then the cotton ball bed supporting the nail and the nail samples were collected at the end of the incubation period, stored at 4° C. and analyzed for drug using LC/MS/MS.
Details of the nail incubation have been previously described^9, 10. […] The supporting cotton ball under the nail was wetted by normal saline providing moisture for the nail plate, and the degree of hydration was monitored and controlled during the experiment. […]
LC/MS/MS (API3000, Applied Biosystems, Foster City, Calif.) was used to quantitate the amounts of non-radiolabeled oxaboroles, C10, 5-fluoro-1,3-dihydro-1-phenyl-2,1-benzoxaborole, C1, and 5-fluoro-1,3-dihydro-1-(3-hydroxymethylphenyl)-2,1-benzoxaborole in samples from the nail penetration studies. […] After centrifugation, the filtrate from the cotton ball samples was transferred to autosampler vials and analyzed by LC/MS/MS. […]

Series [5] relates to Saccharomyces cerevisiae strain ATCC 201388. Briefly: MIC (NCCLS M27, YPD or synthetic defined media), haploid parental strain. Type of series: cell-based. The note with it: Saccharomyces cerevisiae, ATCC201388, Table 2; ATCC201388; read-out: MIC. As to the method:
as §1, §2

Series [6] concerns bacterial isoleucyl-tRNA synthetases. The note with it: cited from earlier work.

Molecules are shown by their SMILES. ≈ marks a conversion by molar mass, not a printed value.

A word on the solubility: it is the concentration that dissolves in the medium under given conditions. In the case of `OB1OCc2cc(Cl)ccc21` [C1, 5-chlorobenzo[c][1,2]oxaborol-1(3H)-ol], the solubility in series [1] is more than 100 µg/mL.
The term MIC denotes the smallest concentration in the dilution series that meets the test's criterion for growth inhibition. For `Cc1cc(C2CCCCC2)n(O)c(=O)c1` [ciclopirox], in series [2], the “resistance of C10 resistant mutants to other antifungals, in words” value is “not resistant”. In addition, the MIC in series [2] (C10 resistant mutant (C)), in series [2] (C10 resistant mutant (G)), in series [2] (C10 resistant mutant (H)) and in series [5] was 0.5 µg/mL (≈ 2.41 µM) each time. Further, in series [3], the “Cumulative radioactivity recoveries of carbon-14” value is 89±1.56% of applied dose. For the same compound, the “penetration of the nail plate, in words” value in series [4] is recorded as “penetrates the nail plate poorly”.
In the case of `C/C(=C\C(=O)OCCCCCCCCC(=O)O)C[C@@H]1OC[C@H](C[C@@H]2O[C@H]2[C@@H](C)[C@H](C)O)[C@@H](O)[C@H]1O` [Mupirocin, mupirocin], the “activity against the human homolog versus bacterial isoleucyl-tRNA synthetases (times less active)” value in series [6] is “more than 1,000 times”.
